Test results taken from patent US20260325685A1, “Radiopharmaceutical Compositions Targeting Carbonic Anhydrase IX and Uses Thereof” (RayzeBio, Inc., priority 2023, published 2026).
Like-named read-outs stand apart in the source and are kept apart here.

How the values were obtained:
human CA-IX = biological target: T1, human CA-IX (Homo sapiens, UniProt Q16790); experiment: Surface Plasmon Resonance (SPR) binding kinetics to recombinant human CA-IX (Biacore 8K, single-cycle kinetics, 1:1 binding model)
T1 construct: purchased Acro CA9-H82E3
Protocol: (§1) G1. Surface Plasmon Resonance Assay Conditions for hCA-IX and hCA-XII
(§2) Surface Plasmon Resonance (SPR) experiments were conducted on a Biacore 8K instrument (Cytiva, Marlborough, MA) to determine the binding kinetics of the compound to recombinant human CA-IX (Acro, CA9-H82E3) and CA-XII (Creative BioMart, CA12-261H) proteins. The ligands were diluted to 10 μg/mL in PBS-P+ buffer (20 mM phosphate buffer, pH 7.4, with 2.7 mM KCl, 137 mM NaCl, and 0.05% Tween 20) and captured on Series S Streptavidin Sensor Chips (Cytiva, 29699621) to 1200-1800 response units (RU) using a flow rate of 5 μL/min and injection times of 180 seconds for human CA-IX and 75 seconds for human CA-XII. Analyte binding was evaluated using a single-cycle kinetics method over 9 analyte concentrations (100-0.39 nM) in PBS-P+ buffer with 1% DMSO using a 50 μL/min. flow rate, 120 second association time, and 1200 second dissociation time. The flow cell temperature was set to 25° C. Analyte binding curves were fit to a 1:1 binding kinetic model in Biacore Insight Evaluation software (version 4.0.8.20368) following reference flow cell subtraction and DMSO correction to derive the association and dissociation binding constants.

human CA-XII = biological target: T2, human CA-XII (Homo sapiens, UniProt O43570); experiment: Surface Plasmon Resonance (SPR) binding kinetics to recombinant human CA-XII (Biacore 8K, single-cycle kinetics, 1:1 binding model)
T2 construct: purchased Creative BioMart CA12-261H
T2 sequence (O43570 25-354): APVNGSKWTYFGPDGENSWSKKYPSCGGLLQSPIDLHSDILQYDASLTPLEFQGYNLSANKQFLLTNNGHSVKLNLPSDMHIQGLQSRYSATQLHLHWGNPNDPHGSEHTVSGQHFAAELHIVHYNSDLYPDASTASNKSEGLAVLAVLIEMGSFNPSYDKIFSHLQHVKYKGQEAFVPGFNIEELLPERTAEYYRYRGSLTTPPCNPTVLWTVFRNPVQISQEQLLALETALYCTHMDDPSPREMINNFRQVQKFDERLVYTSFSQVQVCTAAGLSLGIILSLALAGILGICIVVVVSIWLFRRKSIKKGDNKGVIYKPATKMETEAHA
Protocol: as §1, §2

[1] = Chelated Metal: Lu-175; SPR, 25° C., pH 7.4; read-out: CAIX KD
[2] = Chelated Metal: Lu-175, 25° C., pH 7.4, read-out: CAXII KD
[3] = read-out: CAIX KD; Chelated Metal: Lu-175; SPR, 25° C., pH 7.4
[4] = read-out: CAXII KD, Chelated Metal: Lu-175, 25° C., pH 7.4

Structure (SMILES)	Kd (human CA-IX; [1]) [nM]	Kd (human CA-XII; [2]) [nM]	Kd (human CA-IX; [3]) [nM]	Kd (human CA-XII; [4]) [nM]
CC(CCC(=O)N[C@@H](CC(=O)N[C@@H](CC(=O)N1CCN(C(=O)[C@H](CCC(=O)NCCOCCOCCOCCOCCOCCOCCOCCOCCC(=O)N[C@@H](CCCCNC(=O)CCCc2ccc(Cl)cc2)C(=O)O)NC(=O)CN2CCN(CC(=O)O)CCN(CC(=O)O)CCN(CC(=O)O)CC2)C[C@H]1C(=O)NCCn1cc(C23CC(C(=O)Nc4nnc(S(N)(=O)=O)s4)(C2)C3)nn1)C(=O)O)C(=O)O)(c1ccc(O)cc1)c1ccc(O)cc1.[Lu+3] (racemic) [Compound 125.1]	2.5 to 10	> 10		
CC(CCC(=O)N[C@@H](CC(=O)N[C@@H](CC(=O)N1CCN(C(=O)[C@H](CCC(=O)NCCOCCOCCOCCOCCOCCOCCOCCOCCC(=O)N[C@@H](CCCCNC(=O)CCCc2ccc(I)cc2)C(=O)O)NC(=O)CN2CCN(CC(=O)O)CCN(CC(=O)O)CCN(CC(=O)O)CC2)C[C@H]1C(=O)NCCn1cc(C23CC(C(=O)Nc4nnc(S(N)(=O)=O)s4)(C2)C3)nn1)C(=O)O)C(=O)O)(c1ccc(O)cc1)c1ccc(O)cc1.[Lu+3] (racemic) [Compound 125]			1 to 2.5	> 10
CC(CCCC(=O)N1CCC(C(N)=O)(C(=O)NCC(=O)NC2(C(=O)NCCn3cc(C45CC(C(=O)Nc6nnc(S(N)(=O)=O)s6)(C4)C5)nn3)CCN(C(=O)CN3C[C@@H]4CN(C(=O)CN5CCN(CC(=O)O)CCN(CC(=O)O)CCN(CC(=O)O)CC5)C[C@@H]4C3)CC2)CC1)(c1ccc(O)cc1)c1ccc(O)cc1.[Lu+3] (racemic) [Compound 129.6]	< 1	> 10		
CC(CCCC(=O)N1CCC(C(=O)O)(C(=O)NCC(=O)NC2(C(=O)NCCn3cc(C45CC(C(=O)Nc6nnc(S(N)(=O)=O)s6)(C4)C5)nn3)CCN(C(=O)CN3CCN(CC(=O)O)CCN(CC(=O)O)CCN(CC(=O)O)CC3)CC2)CC1)(c1ccc(O)cc1)c1ccc(O)cc1.[Lu+3] (single isomer, unassigned) [Compound 117.1]	< 1	> 10		
CC(CCCC(=O)N1CCC(C(=O)O)(C(=O)NCC(=O)NC2(C(=O)NCCn3cc(C45CC(C(=O)Nc6nnc(S(N)(=O)=O)s6)(C4)C5)nn3)CCN(C(=O)CN3CCN(CC(=O)O)CCN(CC(=O)O)CCN(CC(=O)O)CC3)CC2)CC1)(c1ccc(O)cc1)c1ccc(O)cc1.[Lu+3] (single isomer, unassigned) [Compound 117.4]	1 to 2.5	> 10		
CC(CCC(=O)N[C@@H](CC(=O)N[C@@H](CC(=O)N[C@@H](CCCCn1cc(C23CCC(C(=O)Nc4nnc(S(N)(=O)=O)s4)(CC2)C3)nn1)C(=O)NCCOCCOCCNC(=O)CN1CCN(CC(=O)O)CCN(CC(=O)O)CCN(CC(=O)O)CC1)C(=O)O)C(=O)O)(c1ccc(O)cc1)c1ccc(O)cc1.[Lu+3] [Compound 100.1]	< 1	1 to 2.5		
CC(CCC(=O)N[C@@H](CC(=O)N[C@@H](CC(=O)N[C@@H](CCCn1cc(C23CC(C(=O)Nc4nnc(S(N)(=O)=O)s4)(C2)C3)nn1)C(=O)NCCOCCOCCNC(=O)CN1CCN(CC(=O)O)CCN(CC(=O)O)CCN(CC(=O)O)CC1)C(=O)O)C(=O)O)(c1ccc(O)cc1)c1ccc(O)cc1.[Lu+3] [Compound 100.2]	1 to 2.5	> 10		
CC(CCC(=O)N[C@@H](CC(=O)N[C@@H](CC(=O)N[C@@H](CCCn1cc(C2CCC(C(=O)Nc3nnc(S(N)(=O)=O)s3)CC2)nn1)C(=O)NCCOCCOCCNC(=O)CN1CCN(CC(=O)O)CCN(CC(=O)O)CCN(CC(=O)O)CC1)C(=O)O)C(=O)O)(c1ccc(O)cc1)c1ccc(O)cc1.[Lu+3] (stereo partly shown) [Compound 100.3]	< 1	2.5 to 10		
CC(CCC(=O)N[C@@H](CC(=O)N[C@@H](CC(=O)N[C@@H](CCCCn1cc([C@H]2CC[C@H](C(=O)Nc3nnc(S(N)(=O)=O)s3)CC2)nn1)C(=O)NCCOCCOCCNC(=O)CN1CCN(CC(=O)O)CCN(CC(=O)O)CCN(CC(=O)O)CC1)C(=O)O)C(=O)O)(c1ccc(O)cc1)c1ccc(O)cc1.[Lu+3] [Compound 100.4]	< 1	2.5 to 10		
CC(CCC(=O)N[C@@H](CC(=O)N[C@@H](CC(=O)N[C@@H](CCCn1cc(C23CCC(C(=O)Nc4nnc(S(N)(=O)=O)s4)(CC2)C3)nn1)C(=O)NCCOCCOCCNC(=O)CN1CCN(CC(=O)O)CCN(CC(=O)O)CCN(CC(=O)O)CC1)C(=O)O)C(=O)O)(c1ccc(O)cc1)c1ccc(O)cc1.[Lu+3] [Compound 100.5]	< 1	< 1		
CC(CCC(=O)N[C@@H](CC(=O)N[C@@H](CC(=O)N[C@@H](CCCCn1cc(C23CCC(C(=O)Nc4nnc(S(N)(=O)=O)s4)(CC2)CC3)nn1)C(=O)NCCOCCOCCNC(=O)CN1CCN(CC(=O)O)CCN(CC(=O)O)CCN(CC(=O)O)CC1)C(=O)O)C(=O)O)(c1ccc(O)cc1)c1ccc(O)cc1.[Lu+3] [Compound 100.6]	< 1	1 to 2.5		
CC(CCC(=O)N[C@@H](CC(=O)N[C@@H](CC(=O)N[C@@H](CCCn1cc(C23CCC(C(=O)Nc4nnc(S(N)(=O)=O)s4)(CC2)CC3)nn1)C(=O)NCCOCCOCCNC(=O)CN1CCN(CC(=O)O)CCN(CC(=O)O)CCN(CC(=O)O)CC1)C(=O)O)C(=O)O)(c1ccc(O)cc1)c1ccc(O)cc1.[Lu+3] [Compound 100.7]	< 1	1 to 2.5		
CC(CCC(=O)N[C@@H](CC(=O)N[C@@H](CC(=O)N[C@@H](CCCCn1cc(C23CCC(C(=O)Nc4nnc(S(N)(=O)=O)s4)(CC2)C3)nn1)C(=O)N1CC2(CN(C(=O)CN3CCN(CC(=O)O)CCN(CC(=O)O)CCN(CC(=O)O)CC3)C2)C1)C(=O)O)C(=O)O)(c1ccc(O)cc1)c1ccc(O)cc1.[Lu+3] [Compound 100.10]	< 1	< 1		
CC(CCC(=O)N[C@@H](CC(=O)N[C@@H](CC(=O)N[C@@H](CCCCn1cc(C23CCC(C(=O)Nc4nnc(S(N)(=O)=O)s4)(CC2)C3)nn1)C(=O)N1CC(NC(=O)CN2CCN(CC(=O)O)CCN(CC(=O)O)CCN(CC(=O)O)CC2)C1)C(=O)O)C(=O)O)(c1ccc(O)cc1)c1ccc(O)cc1.[Lu+3] [Compound 100.11]	< 1	< 1		
CC(CCC(=O)N[C@@H](CC(=O)N[C@@H](CC(=O)N[C@@H](CCCCn1cc(C23CCC(C(=O)Nc4nnc(S(N)(=O)=O)s4)(CC2)C3)nn1)C(=O)N1CCC(NC(=O)CN2CCN(CC(=O)O)CCN(CC(=O)O)CCN(CC(=O)O)CC2)CC1)C(=O)O)C(=O)O)(c1ccc(O)cc1)c1ccc(O)cc1.[Lu+3] [Compound 100.12]	< 1	< 1		
CC(CCC(=O)N[C@@H](CC(=O)N[C@@H](CC(=O)N[C@@H](CCCCn1cc(C23CCC(C(=O)Nc4nnc(S(N)(=O)=O)s4)(CC2)C3)nn1)C(=O)N1CCN(C(=O)CN2CCN(CC(=O)O)CCN(CC(=O)O)CCN(CC(=O)O)CC2)CC1)C(=O)O)C(=O)O)(c1ccc(O)cc1)c1ccc(O)cc1.[Lu+3] [Compound 100.13]	< 1	< 1		
CC(CCC(=O)N[C@@H](CC(=O)N[C@@H](CC(=O)N[C@@H](CCCCn1cc(C23CCC(C(=O)Nc4nnc(S(N)(=O)=O)s4)(CC2)C3)nn1)C(=O)NCCOCCNC(=O)CCC(C(=O)O)N1CCN(CC(=O)O)CCN(CC(=O)O)CCN(CC(=O)O)CC1)C(=O)O)C(=O)O)(c1ccc(O)cc1)c1ccc(O)cc1.[Lu+3] (stereo partly shown) [Compound 100.15]	< 1	< 1		
CC(CC(=O)N[C@@H](CC(=O)N[C@@H](CC(=O)N[C@@H](CCCCn1cc(C23CCC(C(=O)Nc4nnc(S(N)(=O)=O)s4)(CC2)C3)nn1)C(=O)NCCOCCOCCNC(=O)CN1CCN(CC(=O)O)CCN(CC(=O)O)CCN(CC(=O)O)CC1)C(=O)O)C(=O)O)(c1ccc(O)cc1)c1ccc(O)cc1.[Lu+3] [Compound 100.17]	< 1	< 1		
CC(CCC(=O)N[C@@H](CC(=O)N[C@@H](CC(=O)N[C@@H](CCCCn1cc(C23CCC(C(=O)Nc4nnc(S(N)(=O)=O)s4)(CC2)C3)nn1)C(=O)NCC1(C(=O)O)CCN(C(=O)CN2CCN(CC(=O)O)CCN(CC(=O)O)CCN(CC(=O)O)CC2)CC1)C(=O)O)C(=O)O)(c1ccc(O)cc1)c1ccc(O)cc1.[Lu+3] [Compound 100.18]	< 1	< 1		
CC(CCC(=O)N[C@@H](CC(=O)N[C@@H](CC(=O)N[C@@H](CCCCn1cc(C23CCC(C(=O)Nc4nnc(S(N)(=O)=O)s4)(CC2)C3)nn1)C(=O)NCC1(C(=O)O)CN(C(=O)CN2CCN(CC(=O)O)CCN(CC(=O)O)CCN(CC(=O)O)CC2)C1)C(=O)O)C(=O)O)(c1ccc(O)cc1)c1ccc(O)cc1.[Lu+3] [Compound 100.19]	< 1	< 1		
CC(CCC(=O)N[C@@H](CC(=O)N[C@@H](CC(=O)N[C@@H](CCCCn1cc(C23CC(C(=O)Nc4nnc(S(N)(=O)=O)s4)(C2)C3)nn1)C(=O)NCCOCCOCCNC(=O)CN1CCN(CC(=O)O)CCN(CC(=O)O)CCN(CC(=O)O)CC1)C(=O)O)C(=O)O)(c1ccc(O)cc1)c1ccc(O)cc1.[Lu+3] [Compound 100]			1 to 2.5	> 10
Cc1cc(-c2cn(CCNC(=O)[C@@H]3CN(C(=O)CN4CCN(CC(=O)O)CCN(CC(=O)O)CCN(CC(=O)O)CC4)CCN3C(=O)C[C@H](NC(=O)C[C@H](NC(=O)CCC(C)(c3ccc(O)cc3)c3ccc(O)cc3)C(=O)O)C(=O)O)nn2)ccc1C(=O)Nc1nnc(S(N)(=O)=O)s1.[Lu+3] [Compound 107.40]		< 1		
